Assay results taken from PubChem BioAssay (NCI).
“And” between values parts separate entries of the source, which are not always exact repeats. Equal values may be shown once.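 Cultured in 96-well plates, cells were exposed to test compound for 48 hours across five concentrations. At the GI50, growth is halved. TGI: total growth inhibition.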

Key:
Assay in all cases: NCI anticancer screen, dose series, 48 h
[1] = system: HOP-18 NSCLC
[2] = system: LXFL 529 NSCLC
[3] = system: XF 498 CNS
[4] = system: NCI/ADR-RES ovarian
[5] = system: MDA-MB-435
[6] = system: DU-145 prostate
[7] = system: T-47D breast
[8] = system: HS 578T breast
[9] = system: BT-549 breast
[10] = system: MCF7 breast

SMILES	TGI [1] [µM]	TGI [2] [µM]	TGI [3] [µM]	GI50 [4]	TGI [4] [µM]	GI50 [5] [µM]	TGI [5] [µM]	GI50 [6] [µM]	TGI [6] [µM]	GI50 [7] [µM]	TGI [7] [µM]	GI50 [8] [µM]	TGI [8] [µM]	GI50 [9] [µM]	TGI [9] [µM]	GI50 [10] [µM]	TGI [10] [µM]	other results
Nc1cc2c3c(cccc3c1)C(=O)N(CCN1CCN(CCN3C(=O)c4cccc5cc(N)cc(c45)C3=O)CC1)C2=O	> 100	> 100	> 100	–	–	–	–	–	–	–	–	–	–	–	–	–	–	–
CCOC(=O)C12CN(C34CC5CC(CC(C5)C3)C4)CC(C(=O)OCC)(C1=O)C(c1ccccc1)OC2c1ccccc1 (stereo not drawn)	–	> 100	> 100	–	–	–	–	–	–	–	–	–	–	–	–	–	–	–
Cc1cc(C)c2c(c1C)CN1CN2Cc2c(C)c(C)cc(C)c21	> 100	> 100	–	–	–	–	–	–	–	–	–	–	–	–	–	–	–	–
CCOC(=O)/C(=C/c1c(-c2ccccc2)[nH]c2ccccc12)C(=O)c1ccc(Cl)cc1	–	–	–	2.69 µM	> 100	3.02	> 100	5.87	> 100	2.27	8.24	3.73	57.5	8.82	> 100	2.91	> 100	–
CC/C(=C(/CC)c1ccc(OP(=O)([O-])[O-])cc1)c1ccc(OP(=O)([O-])[O-])cc1.N.N.N.N.[Pt+4].[Pt+4]	> 100	31.6	–	–	–	–	–	–	–	–	–	–	–	–	–	–	–	GI50 [1]: 59 µM; GI50 [2]: 14 µM
COC(=O)[C@@]12C3=NO[C@]1(C(=O)OC)C(O[Si](C)(C)C(C)(C)C)C1OC(C)(C)OC1[C@@H]2[C@@H](OCc1ccccc1)CC3 (stereo partly drawn)	> 100	> 100	–	–	–	–	–	–	–	–	–	–	–	–	–	–	–	–
COc1cc(C2c3cc4c(cc3[C@@H](OCCN)[C@H]3COC(=O)C23)OCO4)cc(OC)c1O (stereo partly drawn)	> 100	7.75	0.489	–	–	–	–	–	–	–	–	–	–	–	–	–	–	–
C=C1C(=O)C23C(O)C1CCC2C12CO[C@]3(O)[C@@H](O)C1C(C)(C)CCC2O (stereo partly drawn)	25.5	6.03	5.24	–	–	–	–	–	–	–	–	–	–	–	–	–	–	–
C/C(=N\NC(=S)Nc1ccccc1)c1ccccn1	–	–	–	0.0469 µM	4.58	0.67	4.28	0.746	3.03	0.0168	6.41	0.0857	38.4	1.87	13.9	0.0148	11.8	–
CCN(CC)c1ccc(/C=C/C2=[N+](C)c3ccccc3C2(C)C)cc1	–	–	–	13.9 µM	> 100	0.288	4.91	0.492	19	0.205	13.8	0.152	20.9	0.226	1.96	0.307	18.5	–
NCCCNCCCNc1nc2ccccc2c2[nH]c3ccccc3c12	–	–	–	0.645 µM and 0.621 µM	> 100	0.581	2.08	0.0756	1.51	0.334	2.69	0.132	1.54	1.05	2.4	0.00804	1.85	–
c1ccc(COc2ccc(Nc3ncnc4ccc(-c5ccco5)cc34)cc2)cc1	–	–	–	7.97 µM	> 25	6.83	22.3	5.74	24.6	4.09	16.8	7.71	> 23.5	6.87	> 25	0.572	> 13.5	–
CC1=C(C(=O)Nc2cc(F)c(F)cc2F)C(c2cccc([N+](=O)[O-])c2)C(C(=O)Nc2ccccc2C(F)(F)F)=C(C)N1 (stereo not drawn)	–	53.1	–	–	–	–	–	–	–	–	–	–	–	–	–	–	–	–
Cc1ccc(C)c(NC(=O)CCC(=O)CC(=O)C(C)(C)C)c1	> 100	> 100	> 100	–	–	–	–	–	–	–	–	–	–	–	–	–	–	–
